Columns and labels:
[1] = target: Casein kinase I isoform gamma-2 (Homo sapiens) (UniProt P78368); assay: Inhibition of human recombinant CSNK1G2 assessed as residual activity at 10 uM after 1 hr by qPCR analysis relative to control
[2] = target: Dual specificity tyrosine-phosphorylation-regulated kinase 1B (Homo sapiens) (UniProt Q9Y463); assay: Inhibition of human recombinant DYRK1B assessed as residual activity at 10 uM after 1 hr by qPCR analysis relative to control
[3] = target: Epidermal growth factor receptor (Homo sapiens) (UniProt P00533); assay: Inhibition of human recombinant EGFR assessed as residual activity at 10 uM after 1 hr by qPCR analysis relative to control
[4] = target: Ephrin type-A receptor 2 (Homo sapiens) (UniProt P29317); assay: Inhibition of human recombinant EPHA2 assessed as residual activity at 10 uM after 1 hr by qPCR analysis relative to control
[5] = target: Receptor tyrosine-protein kinase erbB-4 (Homo sapiens) (UniProt Q15303); assay: Inhibition of human recombinant ERBB4 assessed as residual activity at 10 uM after 1 hr by qPCR analysis relative to control
[6] = target: Focal adhesion kinase 1 (Homo sapiens) (UniProt Q05397); assay: Inhibition of human recombinant FAK assessed as residual activity at 10 uM after 1 hr by qPCR analysis relative to control
[7] = target: Receptor-type tyrosine-protein kinase FLT3 (Homo sapiens) (UniProt P36888); assay: Inhibition of human recombinant FLT3 assessed as residual activity at 10 uM after 1 hr by qPCR analysis relative to control
[8] = target: Glycogen synthase kinase-3 beta (Homo sapiens) (UniProt P49841); assay: Inhibition of human recombinant GSK3B assessed as residual activity at 10 uM after 1 hr by qPCR analysis relative to control
[9] = target: MAP kinase-activated protein kinase 2 (Homo sapiens) (UniProt P49137); assay: Inhibition of human recombinant MAPKAPK2 assessed as residual activity at 10 uM after 1 hr by qPCR analysis relative to control
[10] = target: Hepatocyte growth factor receptor (Homo sapiens) (UniProt P08581); assay: Inhibition of human recombinant MET assessed as residual activity at 10 uM after 1 hr by qPCR analysis relative to control
[11] = target: MAP kinase-interacting serine/threonine-protein kinase 2 (Homo sapiens) (UniProt Q9HBH9); assay: Inhibition of human recombinant MKNK2 assessed as residual activity at 10 uM after 1 hr by qPCR analysis relative to control
[12] = target: Mitogen-activated protein kinase kinase kinase 9 (Homo sapiens) (UniProt P80192); assay: Inhibition of human recombinant MLK1 assessed as residual activity at 10 uM after 1 hr by qPCR analysis relative to control
[13] = target: Serine/threonine-protein kinase PAK 1 (Homo sapiens) (UniProt Q13153); assay: Inhibition of human recombinant PAK1 assessed as residual activity at 10 uM after 1 hr by qPCR analysis relative to control
[14] = target: Serine/threonine-protein kinase PAK 2 (Homo sapiens) (UniProt Q13177); assay: Inhibition of human recombinant PAK2 assessed as residual activity at 10 uM after 1 hr by qPCR analysis relative to control
[15] = target: Cyclin-dependent kinase 16 (Homo sapiens) (UniProt Q00536); assay: Inhibition of human recombinant PCTK1 assessed as residual activity at 10 uM after 1 hr by qPCR analysis relative to control
[16] = target: Platelet-derived growth factor receptor beta (Homo sapiens) (UniProt P09619); assay: Inhibition of human recombinant PDGFRB assessed as residual activity at 10 uM after 1 hr by qPCR analysis relative to control
[17] = target: Phosphatidylinositol 4,5-bisphosphate 3-kinase catalytic subunit gamma isoform (Homo sapiens) (UniProt P48736); assay: Inhibition of human recombinant PIK3CG assessed as residual activity at 10 uM after 1 hr by qPCR analysis relative to control
[18] = target: Serine/threonine-protein kinase pim-1 (Homo sapiens) (UniProt P11309); assay: Inhibition of human recombinant PIM1 assessed as residual activity at 10 uM after 1 hr by qPCR analysis relative to control
[19] = target: Serine/threonine-protein kinase PLK1 (Homo sapiens) (UniProt P53350); assay: Inhibition of human recombinant PLK1 assessed as residual activity at 10 uM after 1 hr by qPCR analysis relative to control
[20] = target: Serine/threonine-protein kinase PLK3 (Homo sapiens) (UniProt Q9H4B4); assay: Inhibition of human recombinant PLK3 assessed as residual activity at 10 uM after 1 hr by qPCR analysis relative to control
[21] = target: Serine/threonine-protein kinase PLK4 (Homo sapiens) (UniProt O00444); assay: Inhibition of human recombinant PLK4 assessed as residual activity at 10 uM after 1 hr by qPCR analysis relative to control
[22] = target: RAF proto-oncogene serine/threonine-protein kinase (Homo sapiens) (UniProt P04049); assay: Inhibition of human recombinant RAF1 assessed as residual activity at 10 uM after 1 hr by qPCR analysis relative to control
[23] = target: Proto-oncogene tyrosine-protein kinase Src (Homo sapiens) (UniProt P12931); assay: Inhibition of human recombinant SRC assessed as residual activity at 10 uM after 1 hr by qPCR analysis relative to control
[24] = target: Tyrosine-protein kinase ZAP-70 (Homo sapiens) (UniProt P43403); assay: Inhibition of human recombinant ZAP70 assessed as residual activity at 10 uM after 1 hr by qPCR analysis relative to control
[25] = target: Activin receptor type-1B (Homo sapiens) (UniProt P36896); assay: Inhibition of human recombinant ACVR1B assessed as residual activity at 10 uM after 1 hr by qPCR analysis relative to control
[26] = target: ALK tyrosine kinase receptor (Homo sapiens) (UniProt Q9UM73); assay: Inhibition of human recombinant ALK assessed as residual activity at 10 uM after 1 hr by qPCR analysis relative to control
[27] = target: Aurora kinase A (Homo sapiens) (UniProt O14965); assay: Inhibition of human recombinant AURKA assessed as residual activity at 10 uM after 1 hr by qPCR analysis relative to control
[28] = target: Tyrosine-protein kinase receptor UFO (Homo sapiens) (UniProt P30530); assay: Inhibition of human recombinant AXL assessed as residual activity at 10 uM after 1 hr by qPCR analysis relative to control
[29] = target: Serine/threonine-protein kinase B-raf (Homo sapiens) (UniProt P15056); assay: Inhibition of human recombinant BRAF assessed as residual activity at 10 uM after 1 hr by qPCR analysis relative to control
[30] = target: Cyclin-dependent kinase 2 (Homo sapiens) (UniProt P24941); assay: Inhibition of human recombinant CDK2 assessed as residual activity at 10 uM after 1 hr by qPCR analysis relative to control
[31] = target: Cyclin-dependent kinase 3 (Homo sapiens) (UniProt Q00526); assay: Inhibition of human recombinant CDK3 assessed as residual activity at 10 uM after 1 hr by qPCR analysis relative to control
Cyclin-dependent kinase 3 (Homo sapiens), sequence (Q00526 whole entry, looked up): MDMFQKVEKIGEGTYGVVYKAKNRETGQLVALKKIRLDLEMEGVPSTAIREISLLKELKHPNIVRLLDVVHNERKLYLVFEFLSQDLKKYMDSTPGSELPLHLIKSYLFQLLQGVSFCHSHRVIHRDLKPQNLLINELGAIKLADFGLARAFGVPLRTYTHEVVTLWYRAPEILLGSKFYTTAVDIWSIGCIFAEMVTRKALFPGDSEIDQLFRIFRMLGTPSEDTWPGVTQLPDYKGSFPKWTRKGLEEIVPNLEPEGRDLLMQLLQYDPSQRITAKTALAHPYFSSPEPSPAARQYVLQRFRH

Mitogen-activated protein kinase kinase kinase 9 (Homo sapiens), sequence (P80192 whole entry, looked up): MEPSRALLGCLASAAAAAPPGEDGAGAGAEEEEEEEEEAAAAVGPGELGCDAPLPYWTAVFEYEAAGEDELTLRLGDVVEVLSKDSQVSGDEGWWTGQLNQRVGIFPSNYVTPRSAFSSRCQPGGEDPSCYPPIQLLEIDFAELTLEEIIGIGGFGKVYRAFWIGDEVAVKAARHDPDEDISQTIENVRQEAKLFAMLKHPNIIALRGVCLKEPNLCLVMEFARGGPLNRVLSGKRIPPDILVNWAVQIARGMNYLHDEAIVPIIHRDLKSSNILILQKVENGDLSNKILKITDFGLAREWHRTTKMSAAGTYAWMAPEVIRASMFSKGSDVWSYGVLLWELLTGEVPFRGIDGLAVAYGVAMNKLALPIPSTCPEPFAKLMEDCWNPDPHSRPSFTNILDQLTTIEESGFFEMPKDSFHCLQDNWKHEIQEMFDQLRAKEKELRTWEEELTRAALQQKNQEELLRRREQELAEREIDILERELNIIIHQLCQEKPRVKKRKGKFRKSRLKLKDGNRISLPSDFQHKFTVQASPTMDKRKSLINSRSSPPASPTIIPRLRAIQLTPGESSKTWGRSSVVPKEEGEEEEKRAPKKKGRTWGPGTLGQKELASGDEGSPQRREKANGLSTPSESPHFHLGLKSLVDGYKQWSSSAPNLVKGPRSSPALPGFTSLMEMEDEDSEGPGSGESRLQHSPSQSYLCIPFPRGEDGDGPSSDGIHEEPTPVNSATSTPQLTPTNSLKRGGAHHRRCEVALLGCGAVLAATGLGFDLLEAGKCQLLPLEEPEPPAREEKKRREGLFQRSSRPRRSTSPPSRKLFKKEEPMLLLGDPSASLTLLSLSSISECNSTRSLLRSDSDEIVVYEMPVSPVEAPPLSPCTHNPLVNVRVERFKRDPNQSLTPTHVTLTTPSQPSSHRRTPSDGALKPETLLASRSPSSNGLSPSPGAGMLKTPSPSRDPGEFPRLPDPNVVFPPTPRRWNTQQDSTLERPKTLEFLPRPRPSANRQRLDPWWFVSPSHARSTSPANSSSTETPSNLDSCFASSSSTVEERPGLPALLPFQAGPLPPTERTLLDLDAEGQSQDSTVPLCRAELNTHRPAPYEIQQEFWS
Activin receptor type-1B (Homo sapiens), sequence (P36896 whole entry): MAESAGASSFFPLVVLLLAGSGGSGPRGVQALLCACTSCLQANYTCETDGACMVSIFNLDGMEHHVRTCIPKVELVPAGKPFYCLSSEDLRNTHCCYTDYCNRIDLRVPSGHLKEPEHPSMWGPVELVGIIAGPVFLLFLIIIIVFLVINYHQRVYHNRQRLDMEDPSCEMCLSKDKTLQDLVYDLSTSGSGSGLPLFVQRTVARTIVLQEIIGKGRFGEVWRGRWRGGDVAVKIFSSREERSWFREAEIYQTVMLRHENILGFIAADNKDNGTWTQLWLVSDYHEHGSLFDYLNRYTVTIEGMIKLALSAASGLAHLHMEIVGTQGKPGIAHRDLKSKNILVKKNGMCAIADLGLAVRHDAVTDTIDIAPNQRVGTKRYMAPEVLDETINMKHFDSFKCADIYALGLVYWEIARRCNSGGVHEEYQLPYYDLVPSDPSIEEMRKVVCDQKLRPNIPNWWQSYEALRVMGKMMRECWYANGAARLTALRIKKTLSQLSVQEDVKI
Dual specificity tyrosine-phosphorylation-regulated kinase 1B (Homo sapiens), sequence (Q9Y463 whole entry, looked up): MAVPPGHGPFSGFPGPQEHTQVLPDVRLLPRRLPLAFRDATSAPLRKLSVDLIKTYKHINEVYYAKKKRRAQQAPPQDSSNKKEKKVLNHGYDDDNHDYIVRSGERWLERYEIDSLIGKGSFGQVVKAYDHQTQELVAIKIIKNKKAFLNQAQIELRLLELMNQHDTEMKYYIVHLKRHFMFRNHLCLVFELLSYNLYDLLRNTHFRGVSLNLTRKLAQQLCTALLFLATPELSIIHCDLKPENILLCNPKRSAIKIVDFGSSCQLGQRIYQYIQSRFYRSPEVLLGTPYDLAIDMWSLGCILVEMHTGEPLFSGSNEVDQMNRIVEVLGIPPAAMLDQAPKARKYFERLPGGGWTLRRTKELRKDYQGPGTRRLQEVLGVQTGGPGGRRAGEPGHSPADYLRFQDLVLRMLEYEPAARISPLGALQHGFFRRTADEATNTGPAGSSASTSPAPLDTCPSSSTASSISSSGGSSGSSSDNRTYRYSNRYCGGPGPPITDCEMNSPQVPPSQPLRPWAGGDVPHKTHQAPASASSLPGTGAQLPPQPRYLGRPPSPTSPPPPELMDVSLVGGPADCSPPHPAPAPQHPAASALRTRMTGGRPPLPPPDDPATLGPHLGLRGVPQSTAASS
Serine/threonine-protein kinase PLK3 (Homo sapiens), sequence (Q9H4B4 whole entry, looked up): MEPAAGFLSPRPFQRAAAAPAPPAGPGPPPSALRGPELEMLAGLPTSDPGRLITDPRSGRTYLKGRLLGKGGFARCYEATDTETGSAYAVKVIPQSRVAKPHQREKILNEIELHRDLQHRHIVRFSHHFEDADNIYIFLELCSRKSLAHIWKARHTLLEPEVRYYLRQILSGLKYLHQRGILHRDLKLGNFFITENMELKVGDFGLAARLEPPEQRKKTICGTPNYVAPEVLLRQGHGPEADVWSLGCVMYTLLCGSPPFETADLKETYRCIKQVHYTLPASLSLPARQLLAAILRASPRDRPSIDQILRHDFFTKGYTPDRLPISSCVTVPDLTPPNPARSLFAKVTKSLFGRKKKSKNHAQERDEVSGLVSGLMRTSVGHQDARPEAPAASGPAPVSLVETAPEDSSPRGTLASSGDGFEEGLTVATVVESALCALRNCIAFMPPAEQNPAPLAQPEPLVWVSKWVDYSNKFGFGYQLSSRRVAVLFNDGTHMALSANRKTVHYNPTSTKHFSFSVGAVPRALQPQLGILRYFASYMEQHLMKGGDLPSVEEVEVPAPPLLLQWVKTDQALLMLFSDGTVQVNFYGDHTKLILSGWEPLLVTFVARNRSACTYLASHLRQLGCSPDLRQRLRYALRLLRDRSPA
Aurora kinase A (Homo sapiens), sequence (O14965 whole entry): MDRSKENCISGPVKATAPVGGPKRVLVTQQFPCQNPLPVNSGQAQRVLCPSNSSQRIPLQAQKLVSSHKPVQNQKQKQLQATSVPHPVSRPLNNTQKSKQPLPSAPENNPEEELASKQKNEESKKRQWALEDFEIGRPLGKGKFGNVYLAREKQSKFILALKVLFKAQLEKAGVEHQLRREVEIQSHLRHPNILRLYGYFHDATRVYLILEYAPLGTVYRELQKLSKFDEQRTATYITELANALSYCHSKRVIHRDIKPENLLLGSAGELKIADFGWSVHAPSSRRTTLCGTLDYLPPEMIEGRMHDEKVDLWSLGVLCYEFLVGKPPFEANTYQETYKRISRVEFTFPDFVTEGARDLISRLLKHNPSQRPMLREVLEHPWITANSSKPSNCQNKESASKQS
Hepatocyte growth factor receptor (Homo sapiens), sequence (P08581 whole entry): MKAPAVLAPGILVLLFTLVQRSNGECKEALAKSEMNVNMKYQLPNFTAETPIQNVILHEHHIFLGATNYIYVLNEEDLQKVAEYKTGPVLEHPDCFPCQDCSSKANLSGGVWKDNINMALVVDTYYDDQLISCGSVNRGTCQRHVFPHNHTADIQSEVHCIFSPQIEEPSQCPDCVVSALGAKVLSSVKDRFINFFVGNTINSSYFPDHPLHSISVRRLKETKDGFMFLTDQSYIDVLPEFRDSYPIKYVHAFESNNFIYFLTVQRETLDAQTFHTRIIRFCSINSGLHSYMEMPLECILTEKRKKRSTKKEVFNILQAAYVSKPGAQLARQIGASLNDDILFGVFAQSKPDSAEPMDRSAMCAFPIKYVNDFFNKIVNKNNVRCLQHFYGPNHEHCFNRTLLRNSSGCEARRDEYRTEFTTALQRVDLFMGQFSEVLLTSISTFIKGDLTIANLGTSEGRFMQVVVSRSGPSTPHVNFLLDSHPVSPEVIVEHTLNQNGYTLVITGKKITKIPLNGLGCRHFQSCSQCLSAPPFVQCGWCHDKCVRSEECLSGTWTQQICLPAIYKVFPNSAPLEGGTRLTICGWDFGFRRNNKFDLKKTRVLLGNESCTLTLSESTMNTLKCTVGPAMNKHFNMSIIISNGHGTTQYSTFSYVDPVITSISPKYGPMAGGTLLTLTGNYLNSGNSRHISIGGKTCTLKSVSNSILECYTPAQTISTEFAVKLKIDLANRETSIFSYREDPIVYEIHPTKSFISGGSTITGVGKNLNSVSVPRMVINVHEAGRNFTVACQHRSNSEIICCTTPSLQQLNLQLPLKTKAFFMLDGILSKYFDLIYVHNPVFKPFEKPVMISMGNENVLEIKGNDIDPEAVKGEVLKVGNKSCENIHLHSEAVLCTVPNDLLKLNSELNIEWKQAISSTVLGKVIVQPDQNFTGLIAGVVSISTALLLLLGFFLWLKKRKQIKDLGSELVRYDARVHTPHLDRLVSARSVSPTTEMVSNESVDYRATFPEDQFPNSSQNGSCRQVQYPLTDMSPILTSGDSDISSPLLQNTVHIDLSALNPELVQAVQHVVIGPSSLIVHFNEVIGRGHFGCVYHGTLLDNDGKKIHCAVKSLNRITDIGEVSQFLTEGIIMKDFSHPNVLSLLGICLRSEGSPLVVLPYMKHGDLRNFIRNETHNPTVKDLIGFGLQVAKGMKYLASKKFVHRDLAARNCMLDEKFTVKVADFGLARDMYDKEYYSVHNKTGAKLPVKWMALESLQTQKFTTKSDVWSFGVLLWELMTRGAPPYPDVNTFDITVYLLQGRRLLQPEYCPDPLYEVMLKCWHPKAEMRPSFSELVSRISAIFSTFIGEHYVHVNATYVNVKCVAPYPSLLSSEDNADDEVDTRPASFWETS

Cc1c(Cl)cccc1NC(=O)c1sc2nc3c(cc2c1N)C(=O)CC3
Activity [1]: 97%
Activity [2]: 57%
Activity [3]: 100%
Activity [4]: 100%
Activity [5]: 100%
Activity [6]: 100%
Activity [7]: 100%
Activity [8]: 92%
Activity [9]: 100%
Activity [10]: 100%
Activity [11]: 91%
Activity [12]: 99%
Activity [13]: 87%
Activity [14]: 95%
Activity [15]: 100%
Activity [16]: 95%
Activity [17]: 100%
Activity [18]: 73%
Activity [19]: 91%
Activity [20]: 100%
Activity [21]: 100%
Activity [22]: 100%
Activity [23]: 95%
Activity [24]: 95%
Activity [25]: 100%
Activity [26]: 100%
Activity [27]: 98%
Activity [28]: 100%
Activity [29]: 96%
Activity [30]: 100%
Activity [31]: 100%

Reference: ChEMBL document CHEMBL3769377, “A synthesis, in silico, in vitro and in vivo study of thieno[2,3-b]pyridine anticancer analogues” (Medchemcomm, 2015)
